Drawing on PubChem BioAssay (NCI), this text covers TGI and GI50 for eight molecules.

SMILES strings stand for the structures.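 Each compound was tested at five concentrations against cells in 96-well plates for 48 hours. GI50 = concentration required for 50% inhibition of growth. TGI: total growth inhibition.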

Some test systems named below: MDA-MB-231 breast; SK-MEL-5 melanoma; A498 renal; RPMI-8226 leukemia; SK-MEL-2 melanoma; NCI-H522 lung; HT29 colon; 786-0 renal; UACC-62 melanoma; NCI-H460 lung.
What all share (assay): NCI tumour cell line growth inhibition, 48 h

On to `COc1cccc2c1C(=O)c1c(O)c3c(c(O)c1C2=O)C[C@@](O)(C(C)=O)CC3OC1CC(OC2CC(N)C(O)C(C)O2)C(O)C(C)O1` (stereo not given in full), for which the TGI with MDA-MB-231 breast is greater than 100 µM; in the assay with SK-MEL-5 melanoma it was greater than 100 µM; in the assay with A498 renal it was greater than 100 µM; in the assay with RPMI-8226 leukemia it was greater than 74.5 µM; in the assay on SK-MEL-2 melanoma it was greater than 100 µM; with NCI-H522 lung, greater than 100 µM. Besides, the TGI in the assay with HT29 colon, with 786-0 renal, with UACC-62 melanoma and in the assay on NCI-H460 lung was greater than 100 µM in each case.

Regarding `CC1=NN(c2cccc(Cl)c2)C(=O)/C1=C\c1cn(CC(O)CN2CCCCC2)c2ccccc12` (stereo not given), the GI50 was 3.32 µM with MDA-MB-231 breast; 3.34 µM in the assay with SK-MEL-5 melanoma; 14.6 µM in the assay with A498 renal; 2.91 µM in the assay with RPMI-8226 leukemia; 10.3 µM with SK-MEL-2 melanoma; 10.9 µM in the assay on NCI-H522 lung. Moreover, the GI50 with HT29 colon is 2.02 µM; in the assay on 786-0 renal, 7.46 µM; with UACC-62 melanoma, 2.17 µM; with NCI-H460 lung, 2.44 µM. The TGI in the assay with MDA-MB-231 breast was determined as 15.8 µM; with SK-MEL-5 melanoma it was 10.9 µM; with A498 renal, 41.6 µM; in the assay with RPMI-8226 leukemia, 8.73 µM; with SK-MEL-2 melanoma, 24.7 µM; in the assay on NCI-H522 lung, 26.5 µM. Moreover, the TGI in the assay with HT29 colon came out at 4.57 µM; in the assay with 786-0 renal, 20.8 µM; with UACC-62 melanoma, 4.9 µM; in the assay with NCI-H460 lung, 6.4 µM.

Regarding `CN1CCN(C2=NC(=O)/C(=C\c3ccc(N(C)C)cc3)S2)CC1`, the GI50 is 74.5 µM with MDA-MB-231 breast; greater than 100 µM with SK-MEL-5 melanoma; greater than 100 µM with A498 renal; 32.5 µM in the assay with RPMI-8226 leukemia; greater than 100 µM in the assay with SK-MEL-2 melanoma; greater than 100 µM with NCI-H522 lung. In addition, the GI50 in the assay on HT29 colon was 39.5 µM; in the assay with 786-0 renal it was greater than 100 µM; in the assay with UACC-62 melanoma, 91.7 µM; in the assay on NCI-H460 lung, greater than 100 µM. Further, the TGI with MDA-MB-231 breast, with SK-MEL-5 melanoma, in the assay with A498 renal, in the assay on RPMI-8226 leukemia, in the assay with SK-MEL-2 melanoma and in the assay on NCI-H522 lung was greater than 100 µM throughout. For the same molecule, the TGI in the assay on HT29 colon, with 786-0 renal, in the assay with UACC-62 melanoma and in the assay with NCI-H460 lung was greater than 100 µM each time.

Consider `Clc1ccccc1C(Nc1cnccn1)Nc1cnccn1`, for which the TGI in the assay with MDA-MB-231 breast, with SK-MEL-5 melanoma, in the assay with A498 renal, in the assay on RPMI-8226 leukemia, in the assay with SK-MEL-2 melanoma and in the assay on NCI-H522 lung was greater than 100 µM throughout. The TGI in the assay on HT29 colon, in the assay on 786-0 renal, in the assay with UACC-62 melanoma and with NCI-H460 lung was greater than 100 µM each time.

With `COc1ccc(-c2ccc(OC)c(OC)c2OC)cc1`, the GI50 with MDA-MB-231 breast was 3.21 µM; in the assay with SK-MEL-5 melanoma, 2.68 µM; in the assay on A498 renal, 2.27 µM; in the assay on RPMI-8226 leukemia it was 3.27 µM; in the assay with SK-MEL-2 melanoma, 3.8 µM; in the assay with NCI-H522 lung it was 1.56 µM. Also, the GI50 was 0.529 µM in the assay on HT29 colon, 8.23 µM in the assay on 786-0 renal, 3.29 µM with UACC-62 melanoma and 2.7 µM in the assay on NCI-H460 lung. In addition, the TGI with MDA-MB-231 breast was greater than 74.5 µM; in the assay with SK-MEL-5 melanoma, greater than 45.2 µM; with A498 renal, greater than 31.2 µM; with RPMI-8226 leukemia, greater than 100 µM; with SK-MEL-2 melanoma, greater than 100 µM; in the assay with NCI-H522 lung, greater than 27.9 µM. Moreover, the TGI in the assay with HT29 colon is greater than 100 µM; in the assay on 786-0 renal it was 82.2 µM; with UACC-62 melanoma, greater than 100 µM; in the assay on NCI-H460 lung, greater than 48 µM.

As for `OCc1ccc(N(Cc2ccc(F)cc2)Cc2ccc(F)cc2)cc1Cl`, the GI50 with MDA-MB-231 breast is 11.8 µM; with SK-MEL-5 melanoma, 15.3 µM; in the assay with A498 renal it was 0.18 µM; with RPMI-8226 leukemia, 8.44 µM; in the assay with SK-MEL-2 melanoma, 10.6 µM; with NCI-H522 lung, 9.39 µM. Besides, the GI50 with HT29 colon is 9.66 µM; in the assay with 786-0 renal, 11.6 µM; with UACC-62 melanoma it was 2.61 µM; in the assay with NCI-H460 lung it was 3.64 µM. Also, the TGI with MDA-MB-231 breast is 25.9 µM; with SK-MEL-5 melanoma, 28.9 µM; in the assay with A498 renal, 0.989 µM; with RPMI-8226 leukemia it was 30.4 µM; in the assay with SK-MEL-2 melanoma, 26.9 µM; in the assay on NCI-H522 lung, 25.9 µM. The TGI with HT29 colon is 23.3 µM; in the assay with 786-0 renal it was 25.5 µM; in the assay on UACC-62 melanoma, 13.7 µM; in the assay on NCI-H460 lung, 17.1 µM.

`Cc1ccc(/C(=N/Nc2ccc([N+](=O)[O-])cc2)Sc2cc(Cl)c(C)cc2S(N)(=O)=O)cc1`: the GI50 is 0.8 µM in the assay on MDA-MB-231 breast; 1.78 µM in the assay on SK-MEL-5 melanoma; 1.87 µM in the assay with A498 renal; 1.82 µM with RPMI-8226 leukemia; 4.9 µM in the assay on SK-MEL-2 melanoma; 4.96 µM in the assay on NCI-H522 lung. The GI50 in the assay on HT29 colon is 1.31 µM; in the assay with 786-0 renal, 1.82 µM; with UACC-62 melanoma, 1.73 µM; with NCI-H460 lung, 2.55 µM. Also, the TGI with MDA-MB-231 breast is 2.24 µM; with SK-MEL-5 melanoma, 5.56 µM; in the assay on A498 renal, 4.55 µM; with RPMI-8226 leukemia, 4.27 µM; in the assay on SK-MEL-2 melanoma, 20 µM; in the assay on NCI-H522 lung it was greater than 28.2 µM. In addition, the TGI amounted to 3.12 µM with HT29 colon, 3.37 µM with 786-0 renal, 3.64 µM with UACC-62 melanoma and 9.07 µM with NCI-H460 lung.

`O=C(Nc1n[nH]c2cc(-c3cc(F)ccc3F)ccc12)C1CC1`: the GI50 is 19.5 µM with MDA-MB-231 breast; 8.09 µM with SK-MEL-5 melanoma; greater than 25 µM in the assay with A498 renal; 13.1 µM in the assay with RPMI-8226 leukemia; 12.2 µM with SK-MEL-2 melanoma; 9.15 µM in the assay on NCI-H522 lung. In addition, the GI50 with HT29 colon was 9.42 µM; in the assay with 786-0 renal it was greater than 25 µM; with UACC-62 melanoma it was 19.5 µM; in the assay on NCI-H460 lung, 8.81 µM. The TGI in the assay on MDA-MB-231 breast, in the assay on SK-MEL-5 melanoma, in the assay with A498 renal, in the assay on RPMI-8226 leukemia, in the assay with SK-MEL-2 melanoma and in the assay on NCI-H522 lung was greater than 25 µM throughout. The TGI in the assay on HT29 colon, with 786-0 renal, in the assay on UACC-62 melanoma and in the assay on NCI-H460 lung was greater than 25 µM throughout.
